Assay [1] addresses Corynebacterium glutamicum NRRL B-11474 (BF100) pyruvate carboxylase, feedback-resistant variant (M1V, E153D, A182S, A206S, H227R, A455G, D1120E), SEQ ID NO:2 (Corynebacterium glutamicum, UniProt H7C7K2, A182S/A206S/A455G/D1120E/E153D/H227R/M1V). The method, then: (§1) Pyruvate carboxylate and phosphoenol pyruvate carboxylate assays were performed with permeabilized cells prepared by the following method. Log phase cells were harvested by centrifugation for 10 min at 5000×g at 4° C. and washed with 20 ml of the ice-cold washing buffer (50 mM Tris/HCl [pH 6.3] containing 50 mM NaCl). The cell pellet was resuspended in an ice-cold Hepes buffer (100 mM Hepes [pH 7.5] containing 20% Glycerol) to reach a final concentration of 25 g dry cell weight/liter. Resuspended cells were permeabilized by adding 30 μl of a 10% Hexadecyltrimethyl-ammonium bromide (CTAB) (w/v) solution to 1 ml of cells to give a final concentration of 0.3% (CTAB)(v/v).
The reaction was started at 30° C. with the addition of 10 μl of the permeabilized cell suspension, and the formation of DTNB-thiophenolate was followed over time at 412 nm. Relevant standards and controls were carried out in the same manner.
To account for the intrinsic loss of OAA during the experiment, a continuous assay was carried out by coupling the two-reaction assay to a one-reaction assay in presence of an excess of citrate synthase. The amount of permeabilized cells added in the assay was optimized to obtain a detectable activity, with the lowest possible background absorbency due to the presence of cells.
Pyruvate carboxylase activity was determined as a function of various concentrations of its substrates: pyruvate, bicarbonate and ATP (FIG. 3). Based on the data generated, the affinity constants of pyruvate carboxylase for its substrates were determined (Table 2).
To determine the effect of aspartate on the activity of pyruvate carboxylase, aspartate was added at different concentrations in the spectrophotometer cuvette and enzyme activities were measured. As a comparison, the same experiment was carried out with PEPC in ATCC 21253 (FIG. 5).
Pyruvate carboxylase activity was measured in the presence of different concentrations of acetyl-CoA (FIG. 6). […] The effect of acetyl-CoA on citrate synthase itself was studied also.

Assay [2] deals with T1, Corynebacterium glutamicum ATCC 21253 phosphoenol pyruvate carboxylase (PEPC) (Corynebacterium glutamicum, UniProt P12880).
T1 sequence (P12880 1-919): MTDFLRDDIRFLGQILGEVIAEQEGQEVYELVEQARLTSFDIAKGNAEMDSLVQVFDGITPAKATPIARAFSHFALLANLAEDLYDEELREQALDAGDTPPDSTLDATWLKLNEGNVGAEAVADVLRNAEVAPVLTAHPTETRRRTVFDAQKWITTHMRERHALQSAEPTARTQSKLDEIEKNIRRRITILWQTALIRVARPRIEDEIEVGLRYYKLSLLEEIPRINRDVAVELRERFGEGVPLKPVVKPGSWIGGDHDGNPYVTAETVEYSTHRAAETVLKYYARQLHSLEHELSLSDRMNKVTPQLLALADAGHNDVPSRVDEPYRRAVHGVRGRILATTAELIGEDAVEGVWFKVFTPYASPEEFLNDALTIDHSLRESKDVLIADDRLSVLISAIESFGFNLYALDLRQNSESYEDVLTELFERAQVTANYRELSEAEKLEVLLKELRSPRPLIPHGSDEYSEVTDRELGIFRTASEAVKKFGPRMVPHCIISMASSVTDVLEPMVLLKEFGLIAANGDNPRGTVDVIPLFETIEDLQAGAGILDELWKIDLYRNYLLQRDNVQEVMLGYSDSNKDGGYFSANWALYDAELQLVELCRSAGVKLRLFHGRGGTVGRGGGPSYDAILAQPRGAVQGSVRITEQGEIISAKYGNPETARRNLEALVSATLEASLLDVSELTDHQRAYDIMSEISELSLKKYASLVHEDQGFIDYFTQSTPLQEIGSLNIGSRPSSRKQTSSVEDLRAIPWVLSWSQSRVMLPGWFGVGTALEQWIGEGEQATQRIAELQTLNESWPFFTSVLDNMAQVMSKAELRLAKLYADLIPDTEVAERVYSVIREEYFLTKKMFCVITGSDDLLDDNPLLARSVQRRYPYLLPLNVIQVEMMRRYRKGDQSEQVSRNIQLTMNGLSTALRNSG
As to the kind of experiment: Phosphoenol pyruvate carboxylase assay (permeabilized cells), ATCC 21253. It is filed as biochemical. Particulars: no concentration stated. The procedure:
as §1
For determination of phosphoenol pyruvate carboxylase activity, the assay mixture contained 10 mM phosphoenol pyruvate, 14 mM KHCO3, 4 mM MgCl2, 50 μmole acetyl-CoA, 0.3 mg bovine serum albumin, 0.055 U citrate synthase and 50 mM sodium phosphate buffer ([pH 7.5] containing 0.1 mg 5,5′-Dithio-bis(2-nitrobenzoic acid) (DTNB)) in a final volume of 1 ml. The reaction was carried out in the same conditions described for the pyruvate carboxylase assay.
Aspartate inhibits phosphoenol pyruvate carboxylase (PEPC) activity. To determine the effect of aspartate on the activity of pyruvate carboxylase, aspartate was added at different concentrations in the spectrophotometer cuvette and enzyme activities were measured. […]

Here are results for 1 compound from patent US6965021B2, “Feedback-resistant pyruvate carboxylase gene from corynebacterium” (Archer-Daniels-Midland Company, priority 2000, dated 2005).

Read-outs that look alike come from different tables or passages of the source.

As to `N[C@@H](CC(=O)O)C(=O)O` [aspartate, aspartic acid], the entries for the “effect of aspartate on pyruvate carboxylase activity” value in assay [1] (0-30 mM aspartate) and in assay [1] (30-100 mM aspartate) were “activated” and “inhibited”, respectively. Besides, the “inhibition of PEPC by aspartate” value in assay [2] is recorded as “strongly inhibited”.
